Test results as given in patent US20080064727A1, “Crystalline forms of tiagabine hydrochloride” (Cephalon, Inc., priority 2006, published 2008).
Entries after “also recorded” stand apart in the source; their conditions may differ.

Legend:
Format in all cases: physicochemical
[1] = Solid-form stability on storage, resulting form by XRPD analysis; conditions: for Form converted to during storage: during storage (summary statement, conditions not given); for Form converted to during storage / Form indicated by XRPD analysis after storage: hydrochloride
Description: (§1) X-ray powder diffraction (XRPD) analyses were performed using the following instruments & methods:
(§2) A. Shimadzu XRD-6000 X-ray powder diffractometer using Cu Kα radiation. The instrument was equipped with a long fine focus X-ray tube. The tube voltage and amperage were set to 40 kV and 40 mA, respectively. The divergence and scattering slits were set at 1° and the receiving slit was set at 0.15 mm. Diffracted radiation was detected by a NaI scintillation detector. A θ-2θ continuous scan at 3°/min (0.4 sec/0.02° step) from 2.5 to 40° 2θ was used. A silicon standard was analyzed to check the instrument alignment. Data were collected and analyzed using XRD-6000 v. 4.1. Samples were prepared for analysis by placing them in a sample holder.
(§3) B. Inel XRG-3000 diffractometer, equipped with a CPS (Curved Position Sensitive) detector with a 2 Orange of 120°. Real time data were collected using Cu—Kα radiation starting at approximately 4° 2θ at a resolution of 0.03° 2θ. The tube voltage and amperage were set to 40 kV and 30 mA, respectively. The monochromator slit was set at 5 mm by 80 μm or 160 μm. […] Samples were prepared for analysis by packing them into thin-walled glass capillaries. Each capillary was mounted onto a goniometer head that is motorized to permit spinning of the capillary during data acquisition. The acquisition time was between 5 to 10 min. Instrument calibration was performed using a silicon reference standard.
(§4) D. Bruker D-8 Discover diffractometer and Bruker's General Area Diffraction Detection System (GADDS, v. 4.1.20). An incident beam of Cu—Kα radiation was produced using a fine-focus tube (40 kV, 40 mA), a Gobel mirror, and a 0.5 mm double-pinhole collimator. The samples were positioned for analysis by securing the well plate to a translation stage and moving each sample to intersect the incident beam. Alternatively, the sample was packed between 3-micron thick films to form a portable disc-shaped specimen, and the specimen was loaded in a holder secured to a translation stage. The samples were analyzed using a transmission geometry. The incident beam was scanned and rastered over the sample during the analysis to optimize orientation statistics. A beam-stop was used to minimize air scatter from the incident beam at low angles. Diffraction patterns were collected using a Hi-Star area detector located 15 cm from the sample and processed using GADDS. The intensity in the GADDS image of the diffraction pattern was integrated using a step size of 0.04° 2θ. The integrated patterns display diffraction intensity as a function of 2θ. Prior to the analysis a silicon standard was analyzed to verify the Si 111 peak position.
(§5) E. Peak Picking Methods. Any XRPD files generated from Inel or Bruker XRPD instruments were converted to Shimadzu .raw file using File Monkey version 3.0.4. The Shimadzu .raw file was processed by the Shimadzu XRD-6000 version 4.1 software to automatically find peak positions. The “peak position” means the maximum intensity of a peaked intensity profile. The following processes were used with the Shimadzu XRD-6000 “Basic Process” version 2.6 algorithm: • Smoothing was done on all patterns. • The background was subtracted to find the net, relative intensity of the peaks. • A peak from Cu K alpha2 (1.5444 Å) wavelength was subtracted from the peak generated by Cu K alpha1 (1.5406 Å) peak at 50% intensity for all patterns. Differential Scanning Calorimetry

[2] = Solid-form stability on drying under vacuum, resulting form by XRPD analysis
Description: as §1, §2, §3, §4, §5

[3] = Solid-form stability on heating, resulting form by XRPD analysis
Description: as §1, §2, §3
C. Shimadzu XRD-6000 X-ray powder diffractometer equipped with an Anton Paar HTK 1200 high temperature stage (Variable-temperature XRPD (VT-XRPD)). The sample was packed in a ceramic holder and analyzed form 2.5 to 40° 2θ at 3°/min (0.4 sec/0.02° step). The heating rate was 10° C./min. A silicon standard was analyzed to check the instrument alignment. Temperature calibration was performed using vanillin and sulfapyridine USP melting point standards. Data were collected and analyzed using XPD-6000 v.4.1. The system was kept under a purge of nitrogen during the analysis.
as §4
E. Peak Picking Methods. Any XRPD files generated from Inel or Bruker XRPD instruments were converted to Shimadzu .raw file using File Monkey version 3.0.4. The Shimadzu .raw file was processed by the Shimadzu XRD-6000 version 4.1 software to automatically find peak positions. The “peak position” means the maximum intensity of a peaked intensity profile. The following processes were used with the Shimadzu XRD-6000 “Basic Process” version 2.6 algorithm: • Smoothing was done on all patterns. • The background was subtracted to find the net, relative intensity of the peaks. • A peak from Cu K alpha2 (1.5444 Å) wavelength was subtracted from the peak generated by Cu K alpha1 (1.5406 Å) peak at 50% intensity for all patterns. […]

[4] = stored two months, ambient temperature and humidity
[5] = stored five (5) days, 2-8° C., about 96% relative humidity
[6] = dried about 14 hours under vacuum at about 65° C., hydrochloride
[7] = dried under vacuum at room temperature for less than one day, hydrochloride
[8] = under vacuum at room temperature for about four (4) days, hydrochloride
[9] = stored five (5) days, about 40° C., about 89% relative humidity
[10] = stored five (5) days, about 60° C., about 75% relative humidity

Question: Which results are given for `Cc1ccsc1C(=CCCN1CCC[C@@H](C(=O)O)C1)c1sccc1C.Cl` [Form J, tiagabine hydrochloride]?
Answer: Form converted to during storage [1]: a mixture of tiagabine hydrochloride Forms Q and B; Form indicated by XRPD analysis after storage [1, 4]: a mixture of tiagabine HCl Forms Q and B

Question: For `Cc1ccsc1C(=CCCN1CCC[C@@H](C(=O)O)C1)c1sccc1C.Cl` [Form P containing Form B, tiagabine hydrochloride], which “Form indicated by XRPD analysis after storage” value (from here on “Form indicated … after storage”) [1, 5] is on record?
Answer: The value was “a mixture of tiagabine HCl Forms P and B”.

Question: What about the “Form indicated by XRPD analysis after drying” value (“Form indicated … after drying” for short) [2, 6] of the same molecule?
Answer: Its value is “a mixture of tiagabine Form P and B”.

Question: Which “Form indicated … after drying” value [2, 7] does the source give for `Cc1ccsc1C(=CCCN1CCC[C@@H](C(=O)O)C1)c1sccc1C.Cl` [Form AA, tiagabine hydrochloride] here?
Answer: Its value is “Form AA”.

Question: Which “Form indicated by XRPD analysis after heating” value (“Form indicated … after heating” below) ([3]; heated at 100-110° C. for about 10 minutes) does the source give for `Cc1ccsc1C(=CCCN1CCC[C@@H](C(=O)O)C1)c1sccc1C.Cl` [Form Y, tiagabine hydrochloride] here?
Answer: Its value is “Form B containing a minor amount of Form Q”.

Question: What about the “Form indicated … after drying” value [2, 7] of the same molecule?
Answer: Its value is “Form Y”.

Question: For `Cc1ccsc1C(=CCCN1CCC[C@@H](C(=O)O)C1)c1sccc1C.Cl` [Form C, tiagabine hydrochloride], which “Time stable when stored” value ([1]; ambient temperature and humidity) is on record?
Answer: Its value is 2 months.

Question: And the “Form indicated … after storage” value [1, 4]?
Answer: Its value is “tiagabine HCl Form C”.

Question: Which results are given for `Cc1ccsc1C(=CCCN1CCC[C@@H](C(=O)O)C1)c1sccc1C.Cl` [Form I, tiagabine hydrochloride]?
Answer: Form converted to during storage [1]: a mixture of tiagabine hydrochloride Forms S and B; Form indicated by XRPD analysis after storage [1, 4]: a mixture of tiagabine HCl Forms S and B; also recorded: a mixture of Form S+Form B

Question: For `Cc1ccsc1C(=CCCN1CCC[C@@H](C(=O)O)C1)c1sccc1C.Cl` [Form D, tiagabine hydrochloride], which “Form converted to during storage” value [1] is on record?
Answer: The value was “tiagabine hydrochloride Form B, sometimes mixed with tiagabine hydrochloride Form Q”.

Question: What about the “Form indicated … after storage” value [1, 5] of the same molecule?
Answer: Its value is “a mixture of tiagabine HCl Forms B and Q”.

Question: What about the “Form indicated … after storage” value [1, 4] of the same molecule?
Answer: Its value is “a mixture of tiagabine HCl Forms Q and B”.

Question: What about the “Form indicated … after drying” value [2, 7] of the same molecule?
Answer: The value was “a mixture of Form D containing a minor amount of Form A”.

Question: Which “Form indicated … after drying” value [2, 6] does the source give for `Cc1ccsc1C(=CCCN1CCC[C@@H](C(=O)O)C1)c1sccc1C.Cl` [Form S mixed with Form B, tiagabine hydrochloride] here?
Answer: The value was “a mixture of tiagabine HCl Forms S and B”.

Question: With `Cc1ccsc1C(=CCCN1CCC[C@@H](C(=O)O)C1)c1sccc1C.Cl` [Form M, tiagabine hydrochloride] as the molecule, how does the “Form converted to during storage” value [1] read?
Answer: Its value is “a mixture of tiagabine hydrochloride Forms B and Q”.

Question: What about the “Form indicated … after storage” value [1, 4] of the same molecule?
Answer: Its value is “a mixture of tiagabine HCl Forms B and Q”.

Question: With `Cc1ccsc1C(=CCCN1CCC[C@@H](C(=O)O)C1)c1sccc1C.Cl` [Form P containing a minor amount of Form B] [tiagabine hydrochloride] as the molecule, how does the “Form indicated … after drying” value ([2]; dried about 15 hours under vacuum at 40-95° C.) read?
Answer: The value was “a mixture of tiagabine HCl Forms P and B”.

Question: What about the “Form indicated … after drying” value [2, 8] of the same molecule?
Answer: Its value is “a mixture of tiagabine HCl Forms P and B”.

Question: For `Cc1ccsc1C(=CCCN1CCC[C@@H](C(=O)O)C1)c1sccc1C.Cl` [Form Z, tiagabine hydrochloride], which “Form indicated … after heating” value ([3]; heated at 90-95° C. for about 10 minutes, listed as From Z, hydrochloride) is on record?
Answer: Its value is “a mixture of Forms B and Q”.

Question: Which results are given for `Cc1ccsc1C(=CCCN1CCC[C@@H](C(=O)O)C1)c1sccc1C.Cl` [Form D containing a minor amount of Form B] [tiagabine hydrochloride]?
Answer: Form indicated by XRPD analysis after storage [1, 9]: a mixture of tiagabine HCl Form B and a trace of Q; Form indicated by XRPD analysis after storage [1, 10]: tiagabine HCl Form B and a trace of Q

Question: Which “Form indicated … after heating” value ([3]; heated at 90-95° C. for about 10 minutes, hydrochloride) does the source give for `Cc1ccsc1C(=CCCN1CCC[C@@H](C(=O)O)C1)c1sccc1C.Cl` [Form H, tiagabine hydrochloride] here?
Answer: The value was “Form Q containing a minor amount of Form B”.

Question: And the “Form indicated … after drying” value [2, 8]?
Answer: Its value is “Form Q”.

Question: Which “Form converted to during storage” value [1] does the source give for `Cc1ccsc1C(=CCCN1CCC[C@@H](C(=O)O)C1)c1sccc1C.Cl` [Form P, tiagabine hydrochloride] here?
Answer: The value was “Form B”.

Question: And the “Form indicated … after storage” value [1, 9]?
Answer: The value was “tiagabine HCl Form B”.

Question: What about the “Form indicated … after storage” value [1, 10] of the same molecule?
Answer: Its value is “tiagabine HCl Form B”.

Question: What does the source list for `Cc1ccsc1C(=CCCN1CCC[C@@H](C(=O)O)C1)c1sccc1C.Cl` [Form T, tiagabine hydrochloride]?
Answer: Form indicated by XRPD analysis after heating ([3]; heated to about 115-120° C. for approximately 10 minutes): tiagabine HCl Form B; Form indicated by XRPD analysis after drying [2, 8]: tiagabine HCl Form C
